Measured values reported in ChEMBL document CHEMBL5137024, “Discovery of novel coumarin-indole derivatives as tubulin polymerization inhibitors with potent anti-gastric cancer activities” (Eur J Med Chem, 2022).
Activity calls are given as the source filed them. The rule behind the calls is not given here.

Experiments:
[1] = tested on: DU-145; experiment: Antiproliferative activity against human DU-145 cells assessed as reduction in cell viability incubated for 48 hrs by MTT assay; type: functional, cell-based; conditions: DU-145, 48 h
[2] = tested on: MGC-803; experiment: Inhibition of ERK signalling pathway in human MGC-803 cells assessed as reduction in downstream substrate MSK1 phosphorylation at 5 to 15 nM incubated for 48 hrs; type: cell-based; conditions: dose 5-15 nM
[3] = target: T1, Tubulin (Homo sapiens) (UniProt P68371+Q9H4B7+P0DPH7+P68366+Q13509+Q71U36+P04350+Q3ZCM7+P07437+P68363+Q9BQE3+Q6PEY2+Q13885+Q9BVA1+Q9BUF5); experiment: Disruption of microtubule network in human MGC-803 cells assessed as cytoskeleton disruption at 5 to 15 nM measured after 48 hrs by DAPI staining based fluorescence microscopic analysis; type: cell-based; conditions: dose 5-15 nM
[4] = tested on: A549; experiment: Antiproliferative activity against human A549 cells assessed as reduction in cell viability incubated for 48 hrs by MTT assay; type: functional, cell-based; conditions: A549, 48 h
[5] = target: c-Jun N-terminal kinase, JNK (Homo sapiens) (UniProt P45983+P53779+P45984); experiment: Inhibition of JNK signalling pathway in human HGC-27 cells assessed as reduction in JNK phosphorylation at 10 to 30 nM incubated for 48 hrs; type: cell-based; conditions: dose 10-30 nM
[6] = tested on: HGC-27; experiment: Induction of apoptosis in human HGC-27 cells assessed as decrease in XIAP level; type: functional, cell-based; conditions: dose 10-30 nM, DDE = dose-dependent effect
[7] = tested on: HGC-27; experiment: Induction of apoptosis in human HGC-27 cells assessed as upregulation of cleavage caspase 8 level; type: functional, cell-based; conditions: dose 10-30 nM, DDE = dose-dependent effect
[8] = target: T2, Tubulin beta (Homo sapiens) (UniProt P68371+Q9H4B7+Q13509+P04350+Q3ZCM7+P07437+Q13885+Q9BVA1+Q9BUF5+A6NNZ2); experiment: Binding affinity to beta-tubulin colchicine binding site in human MGC-803 cells assessed as decrease in beta-tubulin adduct band incubated for 2 hrs by EBI alkylate competition assay; type: cell-based; conditions: dose 0.075-0.75 µM, DDE = dose-dependent effect
[9] = tested on: HGC-27; experiment: Induction of DNA damage in human HGC-27 cells by comet assay; type: functional, cell-based; conditions: dose 10-30 nM, DDE = dose-dependent effect
[10] = tested on: MGC-803; experiment: Antiproliferative activity against human MGC-803 cells assessed as reduction in cell viability incubated for 48 hrs by MTT assay; type: functional, cell-based
[11] = tested on: HGC-27; experiment: Downregulation of ATF4 expression in human HGC-27 cells incubated for 48 hrs; type: functional, cell-based; conditions: dose 10-30 nM, DDE = dose-dependent effect
[12] = tested on: MGC-803; experiment: Upregulation of phosphorylated Histone H3 expression in human MGC-803 cells at 5 to 15 nM incubated for 48 hrs; type: functional, cell-based; conditions: dose 5-15 nM
[13] = tested on: MGC-803; experiment: Downregulation of MMP-9 expression in human MGC-803 cells incubated for 48 hrs; type: functional, cell-based; conditions: dose 5-15 nM, DDE = dose-dependent effect
[14] = target: T1, Tubulin (Homo sapiens); experiment: Disruption of microtubule network in human MGC-803 cells assessed as irregular form of filamentous microtubule structures at 5 to 15 nM measured after 48 hrs by DAPI staining based fluorescence microscopic analysis; type: cell-based; conditions: dose 5-15 nM
[15] = tested on: SK-N-SH; experiment: Antiproliferative activity against human SK-N-SH cells assessed as reduction in cell viability incubated for 48 hrs by MTT assay; type: functional, cell-based
[16] = Induction of mitochondria mediated intrinsic apoptosis in human HGC-27 cells assessed as early apoptotic cells at 30 nM measured after 48 hrs by flow cytometry analysis (Rvb= 6.4%); type: functional
[17] = tested on: MGC-803; experiment: Inhibition of p38 signalling pathway in human MGC-803 cells assessed as reduction in MKK3/6 phosphorylation at 5 to 15 nM incubated for 48 hrs; type: cell-based; conditions: dose 5-15 nM
[18] = tested on: HGC-27; experiment: Antiproliferative activity against human HGC-27 cells assessed as reduction in cell viability at 15 to 30 nM by MTT assay; type: functional, cell-based; conditions: dose 15-30 nM, time 12-48 hrs, TDE = time-dependent effect
[19] = target: T2, Tubulin beta (Homo sapiens); experiment: Binding affinity to beta-tubulin colchicine binding site in human HGC-27 cells assessed as decrease in beta-tubulin adduct band incubated for 2 hrs by EBI alkylate competition assay; type: cell-based; conditions: dose 0.075-0.75 µM, DDE = dose-dependent effect
[20] = tested on: Mus musculus; experiment: Downregulation of p38 phosphorylation in tumor tissue of BALB/c nude mouse xenografted with human MGC-803 cells at 15 to 30 mg/kg, ip administered once daily for 21 days by Western blotting analysis; type: functional, organism-based; conditions: dose 15-30 mg/kg, time 21.0 day
[21] = target: T1, Tubulin (Homo sapiens); experiment: Disruption of microtubule network in human HGC-27 cells assessed as incomplete mitosis at 10 to 30 nM measured after 48 hrs by DAPI staining based fluorescence microscopic analysis; type: cell-based; conditions: dose 10-30 nM
[22] = target: T1, Tubulin (Homo sapiens); experiment: Disruption of microtubule network in human HGC-27 cells assessed as cytoskeleton disruption at 10 to 30 nM measured after 48 hrs by DAPI staining based fluorescence microscopic analysis; type: cell-based; conditions: dose 10-30 nM
[23] = tested on: Mus musculus; experiment: Downregulation of ERK1/2 phosphorylation in tumor tissue of BALB/c nude mouse xenografted with human MGC-803 cells at 15 to 30 mg/kg, ip administered once daily for 21 days by Western blotting analysis; type: functional, organism-based; conditions: dose 15-30 mg/kg, time 21.0 day
[24] = tested on: HGC-27; experiment: Downregulation of phosphorylated ATF-2 expression in human HGC-27 cells incubated for 48 hrs; type: functional, cell-based; conditions: dose 10-30 nM, DDE = dose-dependent effect
[25] = tested on: MGC-803; experiment: Inhibition of cell migration in human MGC-803 cells assessed as reduction in wound healing rate at 5 to 15 nM incubated for 24 hrs; type: functional, cell-based; conditions: dose 5-15 nM
[26] = tested on: KYSE-450; experiment: Antiproliferative activity against human KYSE-450 cells assessed as reduction in cell viability incubated for 48 hrs by MTT assay; type: functional, cell-based; conditions: KYSE-450, 48 h
[27] = tested on: MGC-803; experiment: Inhibition of ERK signalling pathway in human MGC-803 cells assessed as downregulation of MEK1/2 phosphorylation at 5 to 15 nM incubated for 48 hrs; type: cell-based; conditions: dose 5-15 nM
[28] = tested on: MGC-803; experiment: Downregulation of cdc2 phosphorylation at Thr14 residue in human MGC-803 cells at 5 to 15 nM incubated for 48 hrs; type: functional, cell-based; conditions: dose 5-15 nM
[29] = tested on: Mus musculus; experiment: Upregulation of PARP expression in tumor tissue of BALB/c nude mouse xenografted with human MGC-803 cells at 15 to 30 mg/kg, ip administered once daily for 21 days by Western blotting analysis; type: functional, organism-based; conditions: dose 15-30 mg/kg, time 21.0 day
[30] = tested on: HGC-27; experiment: Induction of apoptosis in human HGC-27 cells assessed as upregulation of DR5 level; type: functional, cell-based; conditions: dose 10-30 nM, DDE = dose-dependent effect
[31] = Induction of mitochondria mediated intrinsic apoptosis in human HGC-27 cells assessed as late apoptotic cells at 10 nM measured after 48 hrs by flow cytometry analysis (Rvb= 93.6%); type: functional
[32] = Induction of mitochondria mediated intrinsic apoptosis in human MGC-803 cells assessed as late apoptotic cells at 10 nM measured after 48 hrs by flow cytometry analysis (Rvb= 98.2%); type: functional
[33] = Induction of mitochondria mediated intrinsic apoptosis in human HGC-27 cells assessed as late apoptotic cells at 30 nM measured after 48 hrs by flow cytometry analysis (reference value: 93.6%); type: functional
[34] = tested on: HGC-27; experiment: Antiproliferative activity against human HGC-27 cells assessed as inhibition of cell growth at 10 to 30 nM incubated for 60 hrs; type: functional, cell-based; conditions: dose 10-30 nM

CN(c1ccc2c(ccn2C)c1)c1cc(=O)oc2ccccc12
IC50 [1]: 74 nM | inhibition [2]: Active | Activity [3]: Active | IC50 [4]: 59.3 nM | inhibition [5]: Active | Activity [6]: Dde | Activity [7]: Dde | Activity [8]: Dde | Activity [9]: Dde | IC50 ([10]; Homo sapiens, MGC-803, 48 h): 11 nM | IC50 ([10]; mgc-803): 11.5 nM | Activity [11]: Dde | Activity [12]: Active | Activity [13]: Dde | Activity [14]: Active | IC50 [15]: 59.6 nM | Activity [16]: 25.5% | inhibition [17]: Active | Activity [18]: Tde | Activity [19]: Dde | Activity [20]: Active | Activity [21]: Active | Activity [22]: Active | Activity [23]: Active | Activity [24]: Dde | inhibition [25]: Active | IC50 [26]: 21 nM | inhibition [27]: Active | Activity [28]: Active | Activity [29]: Active | Activity [30]: Dde | Activity [31]: 91.6% | Activity [32]: 92.5% | Activity [33]: 74.4% | inhibition [34]: Active
